How the values were obtained:
[1] = target: T1, complex I catalysis in bovine heart mitochondrial membranes (Bos taurus, UniProt P03887+P03898+P17694+P42026); assay: NADH:O2 oxidoreduction by bovine heart mitochondrial membranes; format: biochemical
T1 construct: Fresh cow hearts were purchased from an abattoir; tissue C; Humphreys and Sons, Chelmsford, U.K. (abattoir); host or cells: bovine heart mitochondrial membranes

[2] = tested on: mitochondrial glycerophosphate dehydrogenase (mGPD); conditions: cited from earlier work
[3] = tested on: T2, complex I in bovine heart mitochondrial membranes; assay: NEM sensitivity of NADH:O2 activity (active/deactive ratio); format: biochemical; conditions: as-prepared membranes incubated with 200 μM IM1092 and NEM at 4 °C
T2 construct: Fresh cow hearts were purchased from an abattoir; tissue C; Humphreys and Sons, Chelmsford, U.K. (abattoir); host or cells: bovine heart mitochondrial membranes
Experimental: (§1) and filtered (0.2 µM). The complexes were then separated by ion-exchange chromatography (Q-
(§2) Sepharose, GE Healthcare, as described previously (62)) and complex I-containing fractions
(§3) pooled and concentrated using a 50 kDa MWCO spin column (Merck Millipore). The samples
(§4) were clarified using a Spin-X 0.22 µm centrifugal filter (Corning) then applied to a Superose 6
(§5) Increase 5/150 (inhibitor-free dataset) or 10/300 column (biguanide-inhibited dataset) (GE
(§6) Healthcare) and eluted in 20 mM Tris-HCl (pH 7.14 at 20 ° C), 150 mM NaCl and 0.05% DDM.
(§7) Complex I elutes as a monodisperse peak at ~ 1.6 or 13 mL from the superose 6 increase 5/150 or
(§8) 10/300 columns, respectively (Fig. S3). The peak fractions for the biguanide-inhibited dataset were
(§9) concentrated using a 50 kDa MWCO spin column (Merck Millipore) and the protein concentration
(§10) quantified using a nanodrop UV-vis spectrophotometer (e280 = 0.2 mg-1 mL); IM1092 was then […]
(§11) µg of purified complex I was reduced with 10 mM dithiothreitol and analyzed on a Novex Tris- […]
(§12) NADH:O2 oxidoreduction by membranes was measured at 10 µg-protein mL-1 using 200 μM […]
(§13) assays. NADH:decylubiquinone (NADH:DQ) oxidoreduction by complex I was measured at 0.5 […]
(§14) measured by linear regression of the maximal slope and quantified by the absorbance of NADH at […]
(§15) was determined to evaluate the active/deactive ratio by incubating the membranes (2 mg-protein […]

[4] = target: T3, detergent-solubilized, purified bovine complex I (Bos taurus, UniProt P03887+P03898+P17694+P42026); assay: NADH:decylubiquinone (NADH:DQ) oxidoreduction by purified complex I; format: biochemical
T3 construct: from tissue; host or cells: bovine heart mitochondrial membranes, solubilized in DDM, Q-Sepharose and Superose 6 chromatography
Experimental: as §1, §2, §3, §4, §5, §6, §7, §8, §9, §10, §11, §12, §13, §14, §15

HEPG2 C3A cells = assay: Cellular oxygen consumption (Seahorse XFe96, rotenone-sensitive OCR); format: cell-based
Experimental: from the weighed sample (1.15 mg) and solvent (0.78956g) masses of 4.31 mM, implying a purity of 93%. The proton NMR spectrum is consistent with the presented chemical structure and with the described shifts for this compound (27). The shifts observed here were ¹H NMR (DMSO, 400 […]
Cellular oxygen consumption measurements
HEPG2 C3A (ATCC CRL10741) cells were a kind gift from AstraZeneca and were authenticated by STR profiling (Eurofins). Cells were grown in Dulbecco's modified Eagle's medium (DMEM, Thermo Fisher Scientific) containing 10 mM glucose supplemented with 10% fetal bovine serum (Thermo Fisher Scientific) at 37 °C in 5% CO2. Per well, 2×10^4 cells were plated into an XFe96 (Agilent) cell plate and incubated for 24 h at 37 °C in 5% CO2. […] OCRs (oxygen consumption rates) were measured in a XFe96 Seahorse extracellular flux analyzer; 2 μM rotenone was used to inhibit complex I at the end of the assay. To calculate the normalized rotenone-sensitive OCR rates, the rotenone-insensitive rates (determined at the end of the experiment) were subtracted, and the traces normalized to 100% at the measurement before IM1092 addition. […] IC50 values were calculated using the normalized rates, following 6 hours of incubation […]

[5] = Fig. 1B, membranes of differing deactive complex I content, 1st labelled value (deactive content not given)
[6] = Fig. 1B, membranes of differing deactive complex I content, 2nd labelled value (deactive content not given)
[7] = Fig. 1B, membranes of differing deactive complex I content, 3rd labelled value (deactive content not given)
[8] = Fig. 1C, pH 9D(i): pH 9 deactivated membranes with antimycin A and AOX
[9] = Fig. 1C, pH 9D: pH 9 deactivated membranes

CN(C)C(=N)N=C(N)N [Metformin, metformin, reference compound]
IC50 [1, 5]: 99000 µM | IC50 [1, 6]: 52000 µM | IC50 [1, 7]: 33000 µM | IC50 ([1]; Fig. 1C, pH 8): 38000 µM | IC50 ([1]; Fig. 1C, pH 9): 9000 µM | IC50 [1, 8]: 8000 µM | IC50 [1, 9]: 15000 µM | inhibition of human mGPD [2]: not to inhibit

N=C(N=C(N)N)NCCc1ccc(I)c(Cl)c1 [IM1092]
IC50 [1, 5]: 32 µM | IC50 [1, 6]: 20 µM | IC50 [1, 7]: 4 µM | IC50 ([1]; Fig. 1C, pH 6): 43 µM | IC50 ([1]; Fig. 1C, pH 7): 27 µM | IC50 ([1]; Fig. 1C, pH 8): 21 µM | IC50 ([1]; Fig. 1C, pH 9): 4 µM | IC50 [1, 8]: 0.816 µM | IC50 [1, 9]: 0.846 µM | deactive content of membranes [3]: essentially the same deactive content as biguanide-free controls | IC50 ([4]; catalysis of detergent-solubilized, purified bovine complex I (NADH:DQ)): 86 µM | control catalytic rate recovered after dilution into inhibitor-free assay buffer ([4]; complex I incubated with 350 μM IM1092 as for cryo-EM grids, then diluted, reversibility): 98% | effect on cellular oxygen consumption (HEPG2 C3A cells): inhibits cellular oxygen consumption

Reference: article PMC7614227, “Structural Basis of Mammalian Respiratory Complex I Inhibition by Medicinal Biguanides” (Science (New York, N.Y.), 2023)
